Laboratory results from patent US20170050957A1, “4-AMINO-6-(HETEROCYCLIC)PICOLINATES AND 6-AMINO-2-(HETEROCYCLIC)PYRIMIDINE-4-CARBOXYLATES AND THEIR USE AS HERBICIDES” (Dow AgroSciences LLC, priority 2013, published 2017).
Read-outs that look alike come from different tables or passages of the source.

Columns and labels:
[1] = test system: Key Grass and Sedge Weeds as well as Grass Crops; test: Post-emergent Test II herbicidal activity (Table 16); format: in vivo; details: post-emergence, 336 h, 14 d; for pest or weed control at 35 g/ha: 35 g ai/ha; for pest or weed control at 70 g/ha: 70 g ai/ha; for pest or weed control at 140 g/ha: 140 g ai/ha
Outline: (§1)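 Visual injury rating (0 = none, 100 = complete kill) taken 14 d after treatment, relative to untreated plants. Compounds in acetone/DMSO with crop oil concentrate and Triton X-155 were track-sprayed at 187 L/ha onto seedlings at the first-second true leaf stage.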

[2] = test system: Key Broadleaf Weed and Crop Species; test: Post-emergent Test II herbicidal activity (Table 15); format: in vivo; details: post-emergence, 336 h, 14 d; for pest or weed control at 35 g/ha: 35 g ai/ha; for pest or weed control at 70 g/ha: 70 g ai/ha; for pest or weed control at 140 g/ha: 140 g ai/ha
Outline: as §1

[3] = Cyperus esculentus, yellow nutsedge (Cyperus esculentus), read-out: Visual Growth Reduction (%) 14 Days After Application, CYPES
[4] = Echinochloa crus-galli, barnyardgrass (Echinochloa crus-galli), read-out: Visual Growth Reduction (%) 14 Days After Application, ECHCG
[5] = Oryza sativa, rice (Oryza sativa), read-out: Visual Growth Reduction (%) 14 Days After Application, ORYSA
[6] = Setaria faberi, giant foxtail (Setaria faberi), read-out: Visual Growth Reduction (%) 14 Days After Application, SETFA
[7] = Triticum aestivum, wheat, spring (Triticum aestivum), read-out: Visual Growth Reduction (%) 14 Days After Application, TRZAS
[8] = Zea mays, maize, corn (Zea mays), read-out: Visual Growth Reduction (%) 14 Days After Application, ZEAMX
[9] = Abutilon theophrasti, velvetleaf (Abutilon theophrasti), read-out: Visual Growth Reduction (%) 14 Days After Application, ABUTH
[10] = Amaranthus retroflexus, redroot pigweed (Amaranthus retroflexus), read-out: Visual Growth Reduction (%) 14 Days After Application, AMARE
[11] = Brassica napus, oilseed rape, canola (Brassica napus), read-out: Visual Growth Reduction (%) 14 Days After Application, BRSNN
[12] = Chenopodium album, lambsquarters (Chenopodium album), read-out: Visual Growth Reduction (%) 14 Days After Application, CHEAL
[13] = Euphorbia heterophylla, wild poinsettia (Euphorbia heterophylla), read-out: Visual Growth Reduction (%) 14 Days After Application, EPHHL
[14] = Helianthus annuus, sunflower (Helianthus annuus), read-out: Visual Growth Reduction (%) 14 Days After Application, HELAN

COC(=O)c1nc(-c2ccc3ccoc3c2F)cc(N)c1Cl [Compound 2.11]
melting point: 148 °C | pest or weed control at 35 g/ha [1, 3]: 0 to 29% | pest or weed control at 70 g/ha [1, 3]: 0 to 29% | pest or weed control at 140 g/ha [1, 3]: 30 to 44% | pest or weed control at 35 g/ha [1, 4]: 85 to 94% | pest or weed control at 70 g/ha [1, 4]: 95 to 100% | pest or weed control at 140 g/ha [1, 4]: 95 to 100% | pest or weed control at 35 g/ha [1, 5]: 0 to 29% | pest or weed control at 70 g/ha [1, 5]: 0 to 29% | pest or weed control at 140 g/ha [1, 5]: 0 to 29% | pest or weed control at 35 g/ha [1, 6]: 45 to 59% | pest or weed control at 70 g/ha [1, 6]: 60 to 74% | pest or weed control at 140 g/ha [1, 6]: 75 to 84% | pest or weed control at 35 g/ha [1, 7]: 0 to 29% | pest or weed control at 70 g/ha [1, 7]: 0 to 29% | pest or weed control at 140 g/ha [1, 7]: 30 to 44% | pest or weed control at 35 g/ha [1, 8]: 45 to 59% | pest or weed control at 70 g/ha [1, 8]: 60 to 74% | pest or weed control at 140 g/ha [1, 8]: 85 to 94% | pest or weed control at 35 g/ha [2, 9]: 95 to 100% | pest or weed control at 70 g/ha [2, 9]: 95 to 100% | pest or weed control at 140 g/ha [2, 9]: 95 to 100% | pest or weed control at 35 g/ha [2, 10]: 95 to 100% | pest or weed control at 70 g/ha [2, 10]: 95 to 100% | pest or weed control at 140 g/ha [2, 10]: 95 to 100% | pest or weed control at 35 g/ha [2, 11]: 75 to 84% | pest or weed control at 70 g/ha [2, 11]: 85 to 94% | pest or weed control at 140 g/ha [2, 11]: 95 to 100% | pest or weed control at 35 g/ha [2, 12]: 95 to 100% | pest or weed control at 70 g/ha [2, 12]: 95 to 100% | pest or weed control at 140 g/ha [2, 12]: 95 to 100% | pest or weed control at 35 g/ha [2, 13]: 95 to 100% | pest or weed control at 70 g/ha [2, 13]: 95 to 100% | pest or weed control at 140 g/ha [2, 13]: 95 to 100% | pest or weed control at 35 g/ha [2, 14]: 45 to 59% | pest or weed control at 70 g/ha [2, 14]: 60 to 74% | pest or weed control at 140 g/ha [2, 14]: 75 to 84%

COC(=O)c1nc(-c2cc3occc3cc2F)cc(N)c1Cl [Compound 2.12]
melting point: 130 °C | pest or weed control at 35 g/ha [1, 3]: 0 to 29% | pest or weed control at 70 g/ha [1, 3]: 0 to 29% | pest or weed control at 140 g/ha [1, 3]: 0 to 29% | pest or weed control at 35 g/ha [1, 4]: 95 to 100% | pest or weed control at 70 g/ha [1, 4]: 95 to 100% | pest or weed control at 140 g/ha [1, 4]: 95 to 100% | pest or weed control at 35 g/ha [1, 5]: 0 to 29% | pest or weed control at 70 g/ha [1, 5]: 0 to 29% | pest or weed control at 140 g/ha [1, 5]: 0 to 29% | pest or weed control at 35 g/ha [1, 6]: 45 to 59% | pest or weed control at 70 g/ha [1, 6]: 60 to 74% | pest or weed control at 140 g/ha [1, 6]: 60 to 74% | pest or weed control at 35 g/ha [1, 7]: 0 to 29% | pest or weed control at 70 g/ha [1, 7]: 0 to 29% | pest or weed control at 140 g/ha [1, 7]: 0 to 29% | pest or weed control at 35 g/ha [1, 8]: 0 to 29% | pest or weed control at 70 g/ha [1, 8]: 30 to 44% | pest or weed control at 140 g/ha [1, 8]: 60 to 74% | pest or weed control at 35 g/ha [2, 9]: 85 to 94% | pest or weed control at 70 g/ha [2, 9]: 95 to 100% | pest or weed control at 140 g/ha [2, 9]: 95 to 100% | pest or weed control at 35 g/ha [2, 10]: 95 to 100% | pest or weed control at 70 g/ha [2, 10]: 95 to 100% | pest or weed control at 140 g/ha [2, 10]: 95 to 100% | pest or weed control at 35 g/ha [2, 11]: 75 to 84% | pest or weed control at 70 g/ha [2, 11]: 85 to 94% | pest or weed control at 140 g/ha [2, 11]: 95 to 100% | pest or weed control at 35 g/ha [2, 12]: 95 to 100% | pest or weed control at 70 g/ha [2, 12]: 95 to 100% | pest or weed control at 140 g/ha [2, 12]: 95 to 100% | pest or weed control at 35 g/ha [2, 13]: 95 to 100% | pest or weed control at 70 g/ha [2, 13]: 95 to 100% | pest or weed control at 140 g/ha [2, 13]: 95 to 100% | pest or weed control at 35 g/ha [2, 14]: 30 to 44% | pest or weed control at 70 g/ha [2, 14]: 60 to 74% | pest or weed control at 140 g/ha [2, 14]: 60 to 74%

COC(=O)c1nc(-c2ccc3ccoc3c2F)nc(N)c1OC [Compound 2.13]
melting point: 178 °C | pest or weed control at 35 g/ha [1, 3]: 30 to 44% | pest or weed control at 70 g/ha [1, 3]: 85 to 94% | pest or weed control at 140 g/ha [1, 3]: 85 to 94% | pest or weed control at 35 g/ha [1, 4]: 75 to 84% | pest or weed control at 70 g/ha [1, 4]: 95 to 100% | pest or weed control at 140 g/ha [1, 4]: 95 to 100% | pest or weed control at 35 g/ha [1, 5]: 0 to 29% | pest or weed control at 70 g/ha [1, 5]: 30 to 44% | pest or weed control at 140 g/ha [1, 5]: 30 to 44% | pest or weed control at 35 g/ha [1, 6]: 0 to 29% | pest or weed control at 70 g/ha [1, 6]: 45 to 59% | pest or weed control at 140 g/ha [1, 6]: 60 to 74% | pest or weed control at 35 g/ha [1, 7]: 0 to 29% | pest or weed control at 70 g/ha [1, 7]: 45 to 59% | pest or weed control at 140 g/ha [1, 7]: 45 to 59% | pest or weed control at 35 g/ha [1, 8]: 0 to 29% | pest or weed control at 70 g/ha [1, 8]: 30 to 44% | pest or weed control at 140 g/ha [1, 8]: 45 to 59% | pest or weed control at 35 g/ha [2, 9]: 95 to 100% | pest or weed control at 70 g/ha [2, 9]: 95 to 100% | pest or weed control at 140 g/ha [2, 9]: 95 to 100% | pest or weed control at 35 g/ha [2, 10]: 60 to 74% | pest or weed control at 70 g/ha [2, 10]: 95 to 100% | pest or weed control at 140 g/ha [2, 10]: 95 to 100% | pest or weed control at 35 g/ha [2, 11]: 95 to 100% | pest or weed control at 70 g/ha [2, 11]: 95 to 100% | pest or weed control at 140 g/ha [2, 11]: 95 to 100% | pest or weed control at 35 g/ha [2, 12]: 95 to 100% | pest or weed control at 70 g/ha [2, 12]: 95 to 100% | pest or weed control at 140 g/ha [2, 12]: 95 to 100% | pest or weed control at 35 g/ha [2, 13]: 95 to 100% | pest or weed control at 70 g/ha [2, 13]: 95 to 100% | pest or weed control at 140 g/ha [2, 13]: 95 to 100% | pest or weed control at 35 g/ha [2, 14]: 75 to 84% | pest or weed control at 70 g/ha [2, 14]: 85 to 94% | pest or weed control at 140 g/ha [2, 14]: 95 to 100%
